{"source": "ChEMBL document CHEMBL4376834", "about": "“Discovery of 4H-Chromen-4-one Derivatives as a New Class of Selective Rho Kinase (ROCK) Inhibitors, which Showed Potent Activity in ex Vivo Diabetic Retinopathy Models” (J Med Chem, 2019)", "key": {"[1]": {"biological_target": "Tyrosine-protein kinase JAK2 (Homo sapiens, UniProt O60674)", "experiment": "Inhibition of human recombinant JAK2 (808 to end residues) using KTFCGTPEYLAPE as substrate after 40 mins by [gamma-33ATP] by radiometric scintillation counting analysis"}, "[2]": {"biological_target": "Serine/threonine-protein kinase WNK2 (Homo sapiens, UniProt Q9Y3S1)", "experiment": "Inhibition of recombinant human WNK2 (166 to 489 residues) using myelin basic protein as substrate incubated for 40 mins in presence of [gamma33P]ATP by radiometric scintillation counting analysis"}, "[3]": {"biological_target": "MAP kinase-activated protein kinase 3 (Homo sapiens, UniProt Q16644)", "experiment": "Inhibition of recombinant human MAPKAPK3 (2 to end residues) using KKLNRTLSVA as substrate incubated for 40 mins in presence of [gamma-33ATP by radiometric scintillation counting analysis"}, "[4]": {"biological_target": "Platelet-derived growth factor receptor alpha (Homo sapiens, UniProt P16234, D842V)", "experiment": "Inhibition of human PDGFRalpha D842V mutant (550 to end residues) using GGMEDIYFEFMGG as substrate measured after 40 mins in presence of [gamma33P]ATP by radiometric scintillation counting analysis"}, "[5]": {"biological_target": "Tyrosine-protein kinase ABL1 (Homo sapiens, UniProt P00519, Q252H)", "experiment": "Inhibition of human recombinant ABL1 Q252H mutant (27 to end residues) using EAIYAAPFAKKK as substrate incubated for 40 mins in presence of [gamma-33P]ATP by radiometric scintillation counting analysis"}, "[6]": {"biological_target": "Dual specificity tyrosine-phosphorylation-regulated kinase 1B (Homo sapiens, UniProt Q9Y463)", "experiment": "Inhibition of recombinant full length human DYRK1B using RRRFRPASPLRGPP as substrate after 40 mins in presence of [gamma-33ATP] by radiometric scintillation counting analysis"}, "[7]": {"biological_target": "Dual specificity protein kinase CLK1 (Homo sapiens, UniProt P49759)", "experiment": "Inhibition of recombinant human CLK1 (130 to end residues) using ERMRPRKRQGSVR as substrate incubated 40 mins in presence of [gamma-33ATP] by radiometric scintillation counting analysis"}, "[8]": {"experiment": "Inhibition of recombinant human MER H628Q/R794A double mutant (557 to 882 residues) using KKLNRTLSFAEPG as substrate incubated for 40 mins in presence of [gamma-33ATP by radiometric scintillation counting analysis"}, "[9]": {"experiment": "n-Octanol-water partition coefficient, logD of compound at 1 mg measured after 48 hrs under shaking condition by LC-MS analysis", "type": "physicochemical"}, "[10]": {"biological_target": "Tyrosine-protein kinase FRK (Homo sapiens, UniProt P42685)", "sequence (P42685 whole entry)": "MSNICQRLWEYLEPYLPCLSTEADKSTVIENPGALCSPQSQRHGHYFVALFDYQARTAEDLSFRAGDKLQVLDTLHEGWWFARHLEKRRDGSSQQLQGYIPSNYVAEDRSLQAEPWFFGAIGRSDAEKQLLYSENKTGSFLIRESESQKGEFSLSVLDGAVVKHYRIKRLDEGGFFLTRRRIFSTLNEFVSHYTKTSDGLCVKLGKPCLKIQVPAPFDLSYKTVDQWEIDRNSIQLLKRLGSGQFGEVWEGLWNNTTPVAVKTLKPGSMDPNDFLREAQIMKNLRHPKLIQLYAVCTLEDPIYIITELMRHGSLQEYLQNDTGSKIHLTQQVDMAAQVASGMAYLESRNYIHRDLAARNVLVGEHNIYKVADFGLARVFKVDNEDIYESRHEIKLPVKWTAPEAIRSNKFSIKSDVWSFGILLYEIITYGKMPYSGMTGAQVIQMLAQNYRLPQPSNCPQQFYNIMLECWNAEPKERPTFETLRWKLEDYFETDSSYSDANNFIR", "experiment": "Inhibition of recombinant human PTK5 (218 to end residues) using GGEEEEYFELVKK as substrate incubated for 40 mins in presence of [gamma33P]ATP by radiometric scintillation counting analysis"}, "[11]": {"biological_target": "Cyclin-dependent kinase-like 3 (Homo sapiens, UniProt Q8IVW4)", "experiment": "Inhibition of recombinant full length human CDKL3 using RRRFRPASPLRGPPK as substrate incubated for 120 mins in presence of [gamma-33ATP] by radiometric scintillation counting analysis"}, "[12]": {"biological_target": "Tyrosine-protein kinase JAK1 (Homo sapiens, UniProt P23458)", "sequence (P23458 whole entry)": "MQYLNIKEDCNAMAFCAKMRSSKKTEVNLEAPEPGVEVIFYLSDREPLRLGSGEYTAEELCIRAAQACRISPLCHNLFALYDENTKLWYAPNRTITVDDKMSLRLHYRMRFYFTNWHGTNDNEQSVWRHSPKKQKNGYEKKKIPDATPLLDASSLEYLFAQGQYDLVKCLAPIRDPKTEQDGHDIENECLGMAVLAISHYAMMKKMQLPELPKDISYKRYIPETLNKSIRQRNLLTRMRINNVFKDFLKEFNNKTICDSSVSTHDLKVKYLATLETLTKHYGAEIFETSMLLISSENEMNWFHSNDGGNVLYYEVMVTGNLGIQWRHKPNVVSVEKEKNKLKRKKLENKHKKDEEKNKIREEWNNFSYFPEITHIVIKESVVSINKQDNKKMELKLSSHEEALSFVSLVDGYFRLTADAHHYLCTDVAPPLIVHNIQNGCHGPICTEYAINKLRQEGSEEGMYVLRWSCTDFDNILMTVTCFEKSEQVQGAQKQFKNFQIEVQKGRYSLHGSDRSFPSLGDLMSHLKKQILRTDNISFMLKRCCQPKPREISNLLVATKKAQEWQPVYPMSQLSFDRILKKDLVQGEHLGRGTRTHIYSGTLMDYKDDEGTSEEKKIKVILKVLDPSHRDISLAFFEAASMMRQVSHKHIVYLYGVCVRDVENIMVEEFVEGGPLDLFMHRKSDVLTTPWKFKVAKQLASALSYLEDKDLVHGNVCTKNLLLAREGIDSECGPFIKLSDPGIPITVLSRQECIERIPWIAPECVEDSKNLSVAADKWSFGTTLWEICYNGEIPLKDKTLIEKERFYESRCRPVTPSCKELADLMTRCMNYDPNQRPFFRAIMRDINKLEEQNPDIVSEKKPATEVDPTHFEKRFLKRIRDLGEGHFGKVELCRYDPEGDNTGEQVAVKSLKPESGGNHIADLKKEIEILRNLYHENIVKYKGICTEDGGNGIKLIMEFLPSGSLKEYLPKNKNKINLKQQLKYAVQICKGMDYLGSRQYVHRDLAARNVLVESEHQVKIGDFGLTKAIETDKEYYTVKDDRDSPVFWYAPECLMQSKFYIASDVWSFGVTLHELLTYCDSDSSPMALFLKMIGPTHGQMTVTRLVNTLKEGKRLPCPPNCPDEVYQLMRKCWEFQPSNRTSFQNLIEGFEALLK", "experiment": "Inhibition of human recombinant JAK1 (866 to end residues) using GEEPLYWSFPAKK as substrate after 40 mins by [gamma-33ATP] by radiometric scintillation counting analysis"}, "[13]": {"biological_target": "Serine/threonine-protein kinase ULK1 (Homo sapiens, UniProt O75385)", "experiment": "Inhibition of recombinant human ULK1 (1 to 314 residues) using casein as substrate incubated for 40 mins in presence of [gamma33P]ATP by radiometric scintillation counting analysis"}, "CDK2/Cyclin A1": {"biological_target": "CDK2/Cyclin A1 (Homo sapiens, UniProt P24941)", "experiment": "Inhibition of recombinant full length human CDK2/CyclinA using Histone H1 as substrate incubated for 40 mins in presence of [gamma-33ATP] by radiometric scintillation counting analysis", "type": "protein-complex assay"}, "[14]": {"experiment": "Protein binding in human plasma at 1 uM incubated incubated for 5 hrs under shaking conditions by LC-MS analysis", "type": "ADME, cell-free", "conditions": "read-out: PPB (converted)"}, "[15]": {"biological_target": "Tyrosine-protein kinase ABL1 (Homo sapiens, UniProt P00519, T315I)", "experiment": "Inhibition of human recombinant ABL1 T315I mutant (27 to end residues) using EAIYAAPFAKKK as substrate incubated for 40 mins in presence of [gamma-33P]ATP by radiometric scintillation counting analysis"}, "[16]": {"biological_target": "Homeodomain-interacting protein kinase 4 (Homo sapiens, UniProt Q8NE63)", "sequence (Q8NE63 whole entry)": "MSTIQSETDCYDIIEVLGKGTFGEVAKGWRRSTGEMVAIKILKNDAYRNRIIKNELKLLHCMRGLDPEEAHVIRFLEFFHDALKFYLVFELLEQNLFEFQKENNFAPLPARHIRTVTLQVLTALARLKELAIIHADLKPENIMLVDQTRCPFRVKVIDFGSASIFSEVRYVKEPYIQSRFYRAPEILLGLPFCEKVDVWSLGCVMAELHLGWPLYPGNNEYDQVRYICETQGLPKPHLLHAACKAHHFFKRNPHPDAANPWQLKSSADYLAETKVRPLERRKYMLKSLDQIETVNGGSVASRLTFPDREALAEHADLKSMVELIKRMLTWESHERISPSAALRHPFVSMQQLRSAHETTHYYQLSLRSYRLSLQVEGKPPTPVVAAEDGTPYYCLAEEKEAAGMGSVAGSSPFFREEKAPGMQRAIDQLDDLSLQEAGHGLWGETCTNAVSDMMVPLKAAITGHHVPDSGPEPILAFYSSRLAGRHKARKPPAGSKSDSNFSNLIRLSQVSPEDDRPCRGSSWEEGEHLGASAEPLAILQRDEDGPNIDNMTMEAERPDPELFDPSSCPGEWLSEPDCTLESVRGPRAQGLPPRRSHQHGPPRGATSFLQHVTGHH", "experiment": "Inhibition of human recombinant full length HIPK4 using RRRFRPASPLRGP as substrate after 40 mins by [gamma-33ATP] radiometric assay"}, "[17]": {"biological_target": "MAP kinase-interacting serine/threonine-protein kinase 2 (Homo sapiens, UniProt Q9HBH9)", "experiment": "Inhibition of recombinant full length human MNK2 using myelin basic protein as substrate incubated for 40 mins in presence of [gamma-33ATP by radiometric scintillation counting analysis"}, "[18]": {"biological_target": "Mitogen-activated protein kinase 14 (Homo sapiens, UniProt Q16539)", "sequence (Q16539 whole entry)": "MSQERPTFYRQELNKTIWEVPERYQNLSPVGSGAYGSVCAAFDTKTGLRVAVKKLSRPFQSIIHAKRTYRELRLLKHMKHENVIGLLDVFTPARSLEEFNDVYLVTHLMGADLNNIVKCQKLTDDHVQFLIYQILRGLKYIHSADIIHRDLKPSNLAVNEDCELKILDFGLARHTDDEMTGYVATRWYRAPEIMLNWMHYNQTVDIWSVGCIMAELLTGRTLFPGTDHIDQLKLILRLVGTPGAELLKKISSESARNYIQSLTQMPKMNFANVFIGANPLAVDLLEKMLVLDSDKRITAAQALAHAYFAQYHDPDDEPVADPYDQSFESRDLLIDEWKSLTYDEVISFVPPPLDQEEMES", "experiment": "Inhibition of recombinant human full length SAPK2a using myelin basic protein as substrate incubated for 40 mins in presence of [gamma33P]ATP by radiometric scintillation counting analysis"}, "[19]": {"experiment": "Protein binding in monkey plasma at 1 uM incubated incubated for 5 hrs under shaking conditions by LC-MS analysis", "type": "ADME, cell-free, Macaca mulatta", "conditions": "rhesus monkey, read-out: PPB (converted)"}, "[20]": {"biological_target": "PI3-kinase p110-alpha/p85-alpha (Homo sapiens, UniProt P42336, E545K)", "sequence (P42336 whole entry E545K, looked up)": "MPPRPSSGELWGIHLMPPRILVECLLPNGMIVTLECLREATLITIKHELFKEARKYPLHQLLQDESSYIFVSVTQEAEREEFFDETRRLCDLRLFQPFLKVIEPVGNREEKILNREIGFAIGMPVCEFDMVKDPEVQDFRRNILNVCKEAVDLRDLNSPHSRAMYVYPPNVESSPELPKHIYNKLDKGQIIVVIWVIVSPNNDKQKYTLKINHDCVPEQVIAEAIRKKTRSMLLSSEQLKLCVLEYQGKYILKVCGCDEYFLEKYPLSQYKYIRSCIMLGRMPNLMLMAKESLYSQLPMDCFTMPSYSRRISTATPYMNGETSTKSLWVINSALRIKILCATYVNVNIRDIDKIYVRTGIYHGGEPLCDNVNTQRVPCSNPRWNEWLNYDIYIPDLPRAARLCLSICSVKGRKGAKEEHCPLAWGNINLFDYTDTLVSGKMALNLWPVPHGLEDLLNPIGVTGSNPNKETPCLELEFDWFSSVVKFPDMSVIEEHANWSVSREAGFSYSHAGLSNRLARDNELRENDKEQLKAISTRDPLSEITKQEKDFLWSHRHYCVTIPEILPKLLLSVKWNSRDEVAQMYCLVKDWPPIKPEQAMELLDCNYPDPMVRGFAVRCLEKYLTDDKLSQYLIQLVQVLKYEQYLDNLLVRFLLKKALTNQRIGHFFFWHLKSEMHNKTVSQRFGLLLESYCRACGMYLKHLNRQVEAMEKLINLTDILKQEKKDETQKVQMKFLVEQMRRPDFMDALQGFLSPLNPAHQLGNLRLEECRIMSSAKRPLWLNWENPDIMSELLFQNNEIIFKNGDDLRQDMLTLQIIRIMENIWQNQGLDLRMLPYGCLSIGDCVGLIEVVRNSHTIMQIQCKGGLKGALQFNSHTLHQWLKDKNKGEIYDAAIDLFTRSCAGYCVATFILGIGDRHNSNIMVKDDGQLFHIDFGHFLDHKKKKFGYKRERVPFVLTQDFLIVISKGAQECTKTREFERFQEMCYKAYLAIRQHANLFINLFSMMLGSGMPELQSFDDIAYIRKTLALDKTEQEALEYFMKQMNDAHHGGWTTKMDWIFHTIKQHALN", "experiment": "Inhibition of recombinant human full length PI3K p110alpha/p85alpha E545K mutant using phosphatidylinositol 4,5-bisphosphate as substrate incubated for 40 mins in presence of [gamma33P]ATP by radiometric scintillation counting analysis", "type": "protein-complex assay"}, "[21]": {"experiment": "Inhibition of recombinant full length human PRAK R291E mutant using KKLRRTLSVA as substrate incubated for 40 mins in presence of [gamma33P]ATP by radiometric scintillation counting analysis"}, "[22]": {"biological_target": "Ribosomal protein S6 kinase beta-1 (Homo sapiens, UniProt P23443, T412E)", "experiment": "Inhibition of recombinant human p70S6K T412E mutant (1 to 421 residues) using KKRNRTLTV as substrate measured after 40 mins in presence of [gamma33P]ATP by radiometric scintillation counting analysis"}, "[23]": {"biological_target": "Mitogen-activated protein kinase 11 (Homo sapiens, UniProt Q15759)", "experiment": "Inhibition of recombinant human full length SAPK2b using myelin basic protein as substrate incubated for 40 mins in presence of [gamma33P]ATP by radiometric scintillation counting analysis"}, "[24]": {"biological_target": "Serine/threonine-protein kinase haspin (Homo sapiens, UniProt Q8TF76)", "experiment": "Inhibition of human recombinant Haspin (471 to end residues) using RARTLSFAEPG as substrate after 40 mins by [gamma-33ATP] radiometric assay"}, "[25]": {"biological_target": "Platelet-derived growth factor receptor beta (Homo sapiens, UniProt P09619)", "sequence (P09619 whole entry)": "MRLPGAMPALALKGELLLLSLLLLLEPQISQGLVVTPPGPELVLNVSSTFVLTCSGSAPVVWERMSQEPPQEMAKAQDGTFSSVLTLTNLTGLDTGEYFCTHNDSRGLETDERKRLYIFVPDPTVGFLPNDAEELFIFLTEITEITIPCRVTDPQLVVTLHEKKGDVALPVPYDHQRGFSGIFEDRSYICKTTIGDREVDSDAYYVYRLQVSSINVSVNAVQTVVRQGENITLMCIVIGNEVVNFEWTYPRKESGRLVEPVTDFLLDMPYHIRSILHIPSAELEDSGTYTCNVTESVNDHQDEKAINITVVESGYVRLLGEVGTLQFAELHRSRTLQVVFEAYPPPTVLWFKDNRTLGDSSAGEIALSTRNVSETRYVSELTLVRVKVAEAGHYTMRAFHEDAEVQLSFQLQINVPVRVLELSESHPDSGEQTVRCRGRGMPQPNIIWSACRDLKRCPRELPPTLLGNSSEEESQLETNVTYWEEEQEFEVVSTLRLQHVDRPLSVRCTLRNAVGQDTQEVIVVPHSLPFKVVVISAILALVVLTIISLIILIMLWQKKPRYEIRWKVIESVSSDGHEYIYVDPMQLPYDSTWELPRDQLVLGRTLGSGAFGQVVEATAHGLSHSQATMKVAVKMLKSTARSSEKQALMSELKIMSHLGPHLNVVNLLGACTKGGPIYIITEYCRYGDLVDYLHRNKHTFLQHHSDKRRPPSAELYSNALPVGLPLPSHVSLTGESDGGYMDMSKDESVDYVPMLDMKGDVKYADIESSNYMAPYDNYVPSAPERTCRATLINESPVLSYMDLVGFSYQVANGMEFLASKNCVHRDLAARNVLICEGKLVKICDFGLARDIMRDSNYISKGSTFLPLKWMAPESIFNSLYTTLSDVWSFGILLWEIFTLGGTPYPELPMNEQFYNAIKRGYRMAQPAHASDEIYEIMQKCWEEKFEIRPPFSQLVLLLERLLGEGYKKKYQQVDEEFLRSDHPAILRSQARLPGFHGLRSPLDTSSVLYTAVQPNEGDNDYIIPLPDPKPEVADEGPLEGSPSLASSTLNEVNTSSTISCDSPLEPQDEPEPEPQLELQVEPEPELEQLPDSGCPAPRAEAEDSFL", "experiment": "Inhibition of human PDGFRbeta (557 to end residues) using poly(Glu, Tyr) 4:1 as substrate measured after 40 mins in presence of [gamma33P]ATP by radiometric scintillation counting analysis"}, "[26]": {"experiment": "Half life in human liver microsomes measured upto 45 mins in presence of NADPH by LC-MS analysis", "type": "ADME, Microsome"}}, "note": "pIC50: −log10 of the molar value."}
{"smiles": "CN(C)c1ccc(C(=O)Nc2cccc(NC(=O)COc3ccc4c(=O)ccoc4c3)c2)cc1", "values": [{"measurement": "pIC50", "setting": "[1]", "value": "< 5.00"}, {"measurement": "pIC50", "setting": "[2]", "value": "< 5.00"}, {"measurement": "pIC50", "setting": "[3]", "value": "< 5.00"}, {"measurement": "pIC50", "setting": "[4]", "value": "< 5.00"}, {"measurement": "pIC50", "setting": "[5]", "value": "< 5.00"}, {"measurement": "pIC50", "setting": "[6]", "value": "< 5.00"}, {"measurement": "pIC50", "setting": "[7]", "value": "< 5.00"}, {"measurement": "pIC50", "setting": "[8]", "value": "< 5.00"}, {"measurement": "logD at 48 h", "setting": "[9]", "value": 2.65}, {"measurement": "pIC50", "setting": "[10]", "value": "< 5.00"}, {"measurement": "pIC50", "setting": "[11]", "value": "< 5.00"}, {"measurement": "pIC50", "setting": "[12]", "value": "< 5.00"}, {"measurement": "pIC50", "setting": "[13]", "value": "< 5.00"}, {"measurement": "pIC50", "setting": "CDK2/Cyclin A1", "value": "< 5.00"}, {"measurement": "fraction unbound at 5 h, 1 µM", "setting": "[14]", "value": 0.002}, {"measurement": "pIC50", "setting": "[15]", "value": "< 5.00"}, {"measurement": "pIC50", "setting": "[16]", "value": "< 5.00"}, {"measurement": "pIC50", "setting": "[17]", "value": "< 5.00"}, {"measurement": "pIC50", "setting": "[18]", "value": "< 5.00"}, {"measurement": "fraction unbound at 5 h, 1 µM", "setting": "[19]", "value": 0.002}, {"measurement": "pIC50", "setting": "[20]", "value": "< 5.00"}, {"measurement": "pIC50", "setting": "[21]", "value": "< 5.00"}, {"measurement": "pIC50", "setting": "[22]", "value": "< 5.00"}, {"measurement": "pIC50", "setting": "[23]", "value": "< 5.00"}, {"measurement": "pIC50", "setting": "[24]", "value": "< 5.00"}, {"measurement": "pIC50", "setting": "[25]", "value": "< 5.00"}, {"measurement": "half-life", "setting": "[26]", "value": 8.05, "unit": "min"}]}
